Laboratory results as given in ChEMBL document CHEMBL1201862, “PubChem BioAssay data set” (2004).
Activity calls are given as the source filed them.

Columns and labels:
Vero [1] = test: cells; format: functional, cell-based; conditions: Chlorocebus sabaeus
Vero [2] = test: cells; format: functional; conditions: Chlorocebus sabaeus
Paired box protein Pax-8 = Paired box protein Pax-8 (Homo sapiens, UniProt Q06710); test: PAX8 transcriptional activity inhibition in RMG-I – RMG-I cells, luciferase, cherry-pick, dose response (AID 687027); format: functional, cell-based;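 further: luciferase reporter driven by Pax8 target thyroperoxidase promoter measured by SteadyGlo luminescence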
[3] = molecular target: T1, Short transient receptor potential channel 4 (Mus musculus, UniProt Q9QUQ5); test: calcium entry via TRPC4 opening agents – cell-based, HEK293 TRPC4/mu-opioid, Fluo-4 calcium, dose response (AID 434937); format: functional
T1 sequence (Q9QUQ5 whole entry): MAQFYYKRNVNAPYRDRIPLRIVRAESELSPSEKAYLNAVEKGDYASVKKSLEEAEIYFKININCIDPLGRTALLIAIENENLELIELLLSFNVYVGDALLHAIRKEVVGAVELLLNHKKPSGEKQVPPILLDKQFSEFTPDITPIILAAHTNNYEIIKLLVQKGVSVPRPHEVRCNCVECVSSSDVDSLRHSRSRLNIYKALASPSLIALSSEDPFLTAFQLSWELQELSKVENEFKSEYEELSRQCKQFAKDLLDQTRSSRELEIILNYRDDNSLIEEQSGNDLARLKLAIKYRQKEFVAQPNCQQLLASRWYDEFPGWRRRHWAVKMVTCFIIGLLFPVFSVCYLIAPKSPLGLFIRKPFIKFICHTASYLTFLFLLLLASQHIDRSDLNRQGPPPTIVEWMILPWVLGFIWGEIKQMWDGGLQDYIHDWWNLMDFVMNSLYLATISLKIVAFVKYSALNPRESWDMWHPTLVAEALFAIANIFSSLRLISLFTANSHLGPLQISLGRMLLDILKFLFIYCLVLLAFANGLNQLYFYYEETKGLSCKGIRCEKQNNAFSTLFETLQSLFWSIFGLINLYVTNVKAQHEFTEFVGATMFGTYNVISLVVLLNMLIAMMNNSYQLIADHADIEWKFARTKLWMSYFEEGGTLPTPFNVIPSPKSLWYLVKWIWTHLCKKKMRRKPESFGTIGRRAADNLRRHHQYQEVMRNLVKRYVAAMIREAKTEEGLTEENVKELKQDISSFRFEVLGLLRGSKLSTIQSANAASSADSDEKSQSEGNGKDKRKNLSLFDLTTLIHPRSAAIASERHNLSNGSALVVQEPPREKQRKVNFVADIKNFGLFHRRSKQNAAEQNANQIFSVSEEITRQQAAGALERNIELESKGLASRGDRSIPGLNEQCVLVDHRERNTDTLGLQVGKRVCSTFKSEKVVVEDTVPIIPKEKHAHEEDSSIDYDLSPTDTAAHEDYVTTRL

Beta-galactosidase = Beta-galactosidase (Escherichia coli, UniProt Q8VNN2); test: PubChem AID 485352; format: functional
[4] = molecular target: T2, Type-1 angiotensin II receptor (Homo sapiens, UniProt P30556); test: antagonism of angiotensin II type 1 receptor – cell-based, uHTS hits, selectivity assay for APJ receptor antagonist project, dose response (AID 463214); format: functional;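 further: antagonist potency against angiotensin II stimulated AT1 response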
T2 sequence (P30556 whole entry): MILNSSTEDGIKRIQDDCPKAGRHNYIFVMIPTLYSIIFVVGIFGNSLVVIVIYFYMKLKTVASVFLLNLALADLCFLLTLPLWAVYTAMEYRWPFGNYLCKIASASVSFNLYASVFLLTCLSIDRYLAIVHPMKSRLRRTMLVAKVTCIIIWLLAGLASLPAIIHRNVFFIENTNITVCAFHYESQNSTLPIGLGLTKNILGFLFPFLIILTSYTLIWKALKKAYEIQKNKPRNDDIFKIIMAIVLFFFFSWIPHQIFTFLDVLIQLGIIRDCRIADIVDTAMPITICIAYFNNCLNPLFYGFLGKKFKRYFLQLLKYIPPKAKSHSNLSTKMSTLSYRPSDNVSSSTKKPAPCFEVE

Escherichia coli = test: microbe, parasite or virus in culture
[5] = decrease of insulin promoter-GFP reporter – imaging, high-content screening, mouse beta cells (AID 1628); format: functional; conditions: MIN6
[6] = MIN6 cell viability loss – mouse insulinoma, cytotoxicity control, dose response (AID 2122); format: functional;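 further: confirmatory high-throughput counterscreen run to flag cytotoxic compounds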
[7] = viability of uninfected HEp-2 cells – cell-based, HTS, cytotoxicity control for RSV inhibitor project, dose response (AID 2410); format: functional; conditions: human respiratory syncytial virus
[8] = Luminescence Cell-Based Dose Retest to Confirm Inhibitors of Cancer Stem Cells. [Related pubchem assays (depositor defined):AID2717, AID2721]; format: functional; conditions: Homo sapiens
[9] = molecular target: G-protein coupled receptor 55 (Homo sapiens, UniProt Q9Y2T6); test: inhibition of LPI-stimulated GPR55 beta-arrestin translocation – imaging, U2OS, beta-arrestin-GFP, LPI agonist, primary screen (AID 2013); format: functional;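 further: antagonist potency measured as reduced agonist-driven arrestin aggregation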
Streptococcus = test: GAS UMAA2166 growth inhibition – luminescence, BacTiterGlo, counter-screen for streptokinase expression inhibitor project, dose response (AID 1915); format: functional, organism-based;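 further: potency for reduction of bacterial viability or growth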
INS1 = test: INS-1E survival protection against cytokine death – cell-based, luminescence, retest, dose response (AID 449756); format: functional; conditions: Rattus norvegicus;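 further: cell death triggered by IL-1 beta plus TNF-alpha plus IFN-gamma mixture; protective hits raise ATP signal compared with cytokine alone wells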
[10] = luciferase reporter signal suppression in cells – H4 neuroglioma cells, luminescence, dose response (AID 1990); format: functional, cell-based
[11] = Luminescence Cell-Based Dose Response HTS to Identify Inhibitors of 5'UTR Stem-Loop Driven Prion Protein mRNA Translation in H4 Neuroglioblastoma Cells. [Related pubchem assays: 1827 (Project Summary), 1813 (Primary HTS)]; format: functional
[12] = alpha-synuclein stem-loop luciferase translation blockers – H4 neuroglioma cells, luminescence, confirmation (AID 1988); format: functional, cell-based
[13] = tested on: Streptococcus sp. 'group A'; test: Streptococcus pyogenes SK(-)GAS viability under kanamycin – luminescence, BacTiterGlo, confirmation, counter-screen for streptokinase expression inhibitor project, dose response (AID 1900); format: functional, organism-based
HEK293 [14] = test: EBV LMP1 TES2 canonical NF-kB signalling blockers – cell-based, HEK293, luciferase, cherry-pick, dose response (AID 588343); format: functional; conditions: Homo sapiens
Streptokinase A = molecular target: T3, Streptokinase A (Streptococcus pyogenes serotype M1, UniProt P10520); test: viability-normalized secreted streptokinase activity reduction – plasminogen activation absorbance, OD405, dose response (AID 1914); format: functional, Streptococcus pyogenes M1 GAS;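 further: secreted streptokinase activity via plasminogen activation per viability signal from cell pellet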
T3 sequence (P10520 whole entry): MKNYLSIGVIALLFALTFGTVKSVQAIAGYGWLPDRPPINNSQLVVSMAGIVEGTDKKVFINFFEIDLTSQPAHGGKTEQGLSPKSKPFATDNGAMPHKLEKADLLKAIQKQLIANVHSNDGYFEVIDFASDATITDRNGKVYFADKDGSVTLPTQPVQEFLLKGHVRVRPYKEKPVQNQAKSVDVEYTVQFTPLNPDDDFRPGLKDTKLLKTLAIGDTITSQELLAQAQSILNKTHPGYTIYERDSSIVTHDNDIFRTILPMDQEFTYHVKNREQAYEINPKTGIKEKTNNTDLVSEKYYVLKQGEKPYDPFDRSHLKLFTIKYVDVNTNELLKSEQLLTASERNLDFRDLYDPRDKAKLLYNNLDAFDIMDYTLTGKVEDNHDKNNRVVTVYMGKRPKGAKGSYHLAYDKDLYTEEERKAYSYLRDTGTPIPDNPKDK

Cytochrome P450 3A4 = Cytochrome P450 3A4 (Homo sapiens, UniProt P08684);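 further: CYP3A4 tested as one member of a cytochrome P450 panel screen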
HEK293 [15] = test: cells; format: functional, cell-based; conditions: Homo sapiens
HEK293 [16] = test: inhibition of NOD1-driven NF-kB reporter – cell-based, luminescence, uHTS, primary screen (AID 1578); format: functional; conditions: Homo sapiens
HEK293 [17] = test: cells; format: functional, cell-based; conditions: Homo sapiens; remark: listed apart in the source
HEK293 [18] = test: NOD2 signaling inhibitors in MDP-stimulated cells, cell-based, uHTS, luminescence (AID 2001); format: functional; conditions: Homo sapiens

Beta-galactosidase, sequence (Q8VNN2 whole entry): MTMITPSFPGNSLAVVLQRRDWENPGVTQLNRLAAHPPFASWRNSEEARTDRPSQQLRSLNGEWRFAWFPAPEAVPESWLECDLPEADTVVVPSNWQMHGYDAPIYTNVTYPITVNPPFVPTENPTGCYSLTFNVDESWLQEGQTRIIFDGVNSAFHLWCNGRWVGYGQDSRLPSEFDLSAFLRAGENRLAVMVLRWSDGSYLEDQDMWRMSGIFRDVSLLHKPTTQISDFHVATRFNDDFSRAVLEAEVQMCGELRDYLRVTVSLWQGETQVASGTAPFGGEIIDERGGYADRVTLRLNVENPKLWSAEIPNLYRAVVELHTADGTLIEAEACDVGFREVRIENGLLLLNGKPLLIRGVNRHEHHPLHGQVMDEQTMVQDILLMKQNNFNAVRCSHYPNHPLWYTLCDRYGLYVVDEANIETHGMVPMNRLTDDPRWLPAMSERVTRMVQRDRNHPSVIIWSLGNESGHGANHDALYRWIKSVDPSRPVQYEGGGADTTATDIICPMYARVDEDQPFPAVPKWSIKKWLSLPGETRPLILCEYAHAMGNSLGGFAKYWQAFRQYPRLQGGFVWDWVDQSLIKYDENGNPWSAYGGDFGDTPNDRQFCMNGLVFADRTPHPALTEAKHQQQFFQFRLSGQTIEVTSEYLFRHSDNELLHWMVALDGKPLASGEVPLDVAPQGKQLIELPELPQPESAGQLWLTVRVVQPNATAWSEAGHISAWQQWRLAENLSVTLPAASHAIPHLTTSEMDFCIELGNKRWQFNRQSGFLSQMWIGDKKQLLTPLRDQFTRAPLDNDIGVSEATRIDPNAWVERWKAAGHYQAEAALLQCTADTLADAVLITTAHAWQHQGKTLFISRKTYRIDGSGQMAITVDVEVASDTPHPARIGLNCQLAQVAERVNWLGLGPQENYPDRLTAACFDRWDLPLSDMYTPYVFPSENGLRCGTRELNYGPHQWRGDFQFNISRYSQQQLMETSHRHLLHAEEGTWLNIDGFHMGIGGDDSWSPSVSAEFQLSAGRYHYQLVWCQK
G-protein coupled receptor 55, sequence (Q9Y2T6 whole entry): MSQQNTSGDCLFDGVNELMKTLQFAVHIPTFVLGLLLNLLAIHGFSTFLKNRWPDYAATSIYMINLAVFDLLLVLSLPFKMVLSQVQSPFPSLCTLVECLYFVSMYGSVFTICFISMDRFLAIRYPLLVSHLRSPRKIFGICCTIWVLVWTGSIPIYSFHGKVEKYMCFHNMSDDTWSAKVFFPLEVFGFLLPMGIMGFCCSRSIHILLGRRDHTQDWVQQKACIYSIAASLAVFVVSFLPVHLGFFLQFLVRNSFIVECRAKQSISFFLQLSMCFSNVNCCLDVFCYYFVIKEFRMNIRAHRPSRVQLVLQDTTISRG
Cytochrome P450 3A4, sequence (P08684 whole entry): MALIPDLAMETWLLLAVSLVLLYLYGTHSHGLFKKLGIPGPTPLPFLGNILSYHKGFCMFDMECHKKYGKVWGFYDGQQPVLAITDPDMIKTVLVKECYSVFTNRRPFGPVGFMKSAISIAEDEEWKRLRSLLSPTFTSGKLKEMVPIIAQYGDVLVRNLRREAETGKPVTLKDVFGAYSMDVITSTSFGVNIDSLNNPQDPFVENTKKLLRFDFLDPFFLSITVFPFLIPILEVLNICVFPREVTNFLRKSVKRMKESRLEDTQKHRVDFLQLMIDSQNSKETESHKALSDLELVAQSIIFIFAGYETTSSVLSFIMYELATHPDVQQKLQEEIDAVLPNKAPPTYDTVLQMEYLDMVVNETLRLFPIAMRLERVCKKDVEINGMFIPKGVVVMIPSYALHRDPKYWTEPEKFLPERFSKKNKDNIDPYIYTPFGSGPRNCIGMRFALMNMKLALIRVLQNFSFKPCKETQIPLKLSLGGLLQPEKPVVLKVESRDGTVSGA
Paired box protein Pax-8, sequence (Q06710 whole entry): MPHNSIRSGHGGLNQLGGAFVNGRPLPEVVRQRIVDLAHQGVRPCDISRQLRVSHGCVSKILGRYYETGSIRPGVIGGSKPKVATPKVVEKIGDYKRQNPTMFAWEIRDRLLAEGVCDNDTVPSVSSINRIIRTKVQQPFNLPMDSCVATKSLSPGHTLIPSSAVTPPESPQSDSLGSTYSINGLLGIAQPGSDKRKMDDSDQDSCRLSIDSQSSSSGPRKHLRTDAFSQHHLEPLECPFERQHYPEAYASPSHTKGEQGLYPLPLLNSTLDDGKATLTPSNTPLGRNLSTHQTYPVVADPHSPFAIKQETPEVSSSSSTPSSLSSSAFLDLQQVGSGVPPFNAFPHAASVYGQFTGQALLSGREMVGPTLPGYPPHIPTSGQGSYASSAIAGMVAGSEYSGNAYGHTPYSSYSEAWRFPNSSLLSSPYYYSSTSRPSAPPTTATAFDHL

CC12CCC3C(CCC4(O)CC(O)CCC34C=NO)C1(O)CCC2C1=COC(=O)C1 (configuration not stated)
IC50 (Vero [1]): > 25 µM (active) | CC50 (Vero [2]): 0.62 µM (active) | AC50 (Paired box protein Pax-8): 1.12 µM (active)

CCCCCSc1nnc2c(n1)OC(c1cccn1C)N(C(C)=O)c1ccccc1-2 (configuration not stated)
EC50 [3]: 10.6 µM (active)

O=C1Nc2ccccc2/C1=N/c1ccc(Br)cc1
EC50 (Beta-galactosidase): > 40 µM (inactive) | IC50 [4]: 7.4 µM (active)

COc1ccc(C(CNC(=O)Cc2ccc(-c3ccccc3)cc2)N(C)C)cc1 (configuration not stated)
EC50 [3]: 0.267 µM (active)

CCOc1ccc(NC2=c3c(Br)c(C)ccc3=NC2=O)cc1
EC50 (Beta-galactosidase): > 40 µM (inactive) | IC50 [4]: 7.77 µM (active)

Cc1ccc(OCCOCCNC(C)(C)C)c([N+](=O)[O-])c1
AC50 (Escherichia coli): 46.9 µM (active)

Cc1cc(OCCCn2ccnc2)ccc1[N+](=O)[O-]
EC50 [3]: 4.73 µM (active)

C[C@H]1CC[C@H]2C(=O)N3[C@H](c4ccccc4Br)[C@@H](C)CC[C@H]3C(=O)N2[C@@H]1c1ccccc1Br
IC50 [5]: 2.32 µM (active) | IC50 [6]: 4.2 µM (active)

CCCOc1ccccc1/C=C1\SC(N2CCCCC2)=NC1=O
CC50 [7]: 44.7 µM (active) | IC50 (Vero [1]): 5.33 µM (active) | CC50 (Vero [2]): > 25 µM (active)

CC(C)N(C(=O)CSc1nc2ccccc2n1-c1ccccc1)C(C)C
AC50 [8]: 5.12 µM (active) | IC50 [9]: 3.82 µM (active)

CC1CCCN(C(=O)c2nn(C)c3c2CSc2ccccc2-3)C1 (configuration not stated)
AC50 (Escherichia coli): 48.3 µM (active)

Cc1[nH]n(-c2ccc(Br)cc2)c(=O)c1/C=N/NC(=O)c1ccccc1
EC50 (Streptococcus): 1.92 µM (active) | AC50 (INS1): 0.898 µM (active) | EC50 [10]: 7.9 µM (active) | EC50 [11]: 26.6 µM (active) | EC50 [12]: 0.889 µM (active) | EC50 [13]: 0.593 µM (active) | AC50 (HEK293 [14]): 3.72 µM (active)

Brc1ccc2[nH]c3c(N4CCc5ccccc5C4)ncnc3c2c1
EC50 (Streptococcus): > 150 µM (not active) | AC50 [8]: 20.4 µM (active) | IC50 [5]: 1.43 µM (active) | EC50 (Streptokinase A): 10.9 µM (active) | IC50 [6]: 1.28 µM (active) | EC50 [13]: 5.55 µM (active)

C=CCN1C(=O)c2ccc(C(=O)N3CCC(C(N)=O)CC3)cc2C1=O
AC50 (Escherichia coli): 57.7 µM (active)

Cc1ccc(C(=O)COC(=O)CNC(=O)C(c2ccccc2)c2ccccc2)cc1[N+](=O)[O-]
EC50 (Beta-galactosidase): > 40 µM (inactive) | AC50 (Cytochrome P450 3A4): 15.8 µM (inconclusive) | IC50 [4]: 29.5 µM (not active)

Cc1noc2ncnc(N3CCN(c4cccc(Cl)c4)CC3)c12
IC50 (HEK293 [15]): > 20 µM (inactive) | EC50 (HEK293 [16]): 10.4 µM (active) | IC50 (HEK293 [17]): 8.79 µM (active) | IC50 (HEK293 [18]): 10.3 µM (inactive)

Cc1cc2cc(CN(CCN(C)C)C(S)=NCc3ccco3)c(O)nc2cc1C
IC50 (Vero [1]): 10.4 µM (active) | CC50 (Vero [2]): > 25 µM (active)
